# Literature values as cited in patent US10166183B2, “Pharmaceutical formulations” (AUSPEX PHARMACEUTICALS, INC., priority 2014, dated 2019).
# Conditions: in human plasma; metabolites of orally administered tetrabenazine
row,Compound,half-lives [h]
1,"COc1cc2c(cc1OC)[C@H]1C[C@H](O)[C@H](CC(C)C)CN1CC2 [β-HTBZ, beta-dihydrotetrabenazine]",5
2,alpha-dihydrotetrabenazine [α-HTBZ],7
